Assay results reported in patent publication US20150125889A1, “IN VITRO DETECTION OF MICROORGANISMS WITH AZOREDUCTASE ACTIVITY” (BIOMÉRIEUX, priority 2012, published 2015).

What was measured:
Assay in all cases: Reduction of azo substrates over 24 hours at 35° C., microtitration plate (Example 1)
Format in all cases: cell-based
Acinetobacter baumanii = tested on: Acinetobacter baumanii; design: key to RED (substrate reduced or not): RED indicates whether the substrate is reduced (Y) or not (N); RED indicates whether the substrate is reduced (Y) or not (N); key to Decol (substrate decolourized, decrease in absorbance) / Fluo (fluorescence multiplied by 2 relative to substrate-free control) / Co (growth, absorbance at 660 nm): The symbol “+” means good growth/decolourization/significant increase in fluorescence; The symbol “+/−” means difficult growth; The symbol “−” means that there is no growth/decolourization/significant increase in fluorescence; conditions: A. baumannii, substrate 35 mg/l
Procedure: (§1) Reduction of the “azo” function of the substrates listed in Table I by the species listed in Table II, each species being represented by a strain, is tested in a microtitration plate.
(§2) The reaction medium consists of: • Trypcase soya broth • Substrate 35 mg/l • 0.5 MacFarland inoculum
(§3) The reduction of the substrate and the growth of the microorganisms are monitored using an Infinite® M200 Tecan microplate reader at 35° C. over 24 hours.
(§4) The growth is monitored by the absorbance at 660 nm and the reduction of the substrates by absorbance and fluorescence at the specific wavelengths indicated in Table III.
(§5) The substrate is considered as reduced by the microorganisms when the substrate is decolourized (monitored by the decrease in absorbance) (Decol) and/or when the fluorescence of the substrate is multiplied by 2 relative to the base fluorescence of a substrate-free control (Fluo). The growth is indicated by Co. The symbol “+” means good growth/decolourization/significant increase in fluorescence. The symbol “+/−” means difficult growth. The symbol “−” means that there is no growth/decolourization/significant increase in fluorescence. RED indicates whether the substrate is reduced (Y) or not (N).

Enterococcus faecalis = tested on: Enterococcus faecalis; design: key to RED (substrate reduced or not): RED indicates whether the substrate is reduced (Y) or not (N); RED indicates whether the substrate is reduced (Y) or not (N); key to Decol (substrate decolourized, decrease in absorbance) / Fluo (fluorescence multiplied by 2 relative to substrate-free control) / Co (growth, absorbance at 660 nm): The symbol “+” means good growth/decolourization/significant increase in fluorescence; The symbol “+/−” means difficult growth; The symbol “−” means that there is no growth/decolourization/significant increase in fluorescence; conditions: E. faecalis, substrate 35 mg/l
Procedure: as §1, §2, §3, §4, §5

Kocuria rosea = tested on: Kocuria rosea; design: key to RED (substrate reduced or not): RED indicates whether the substrate is reduced (Y) or not (N); RED indicates whether the substrate is reduced (Y) or not (N); key to Co (growth, absorbance at 660 nm) / Decol (substrate decolourized, decrease in absorbance) / Fluo (fluorescence multiplied by 2 relative to substrate-free control): The symbol “+” means good growth/decolourization/significant increase in fluorescence; The symbol “+/−” means difficult growth; The symbol “−” means that there is no growth/decolourization/significant increase in fluorescence; conditions: K. rosea, substrate 35 mg/l
Procedure: as §1, §2, §3, §4, §5

Pseudomonas aeruginosa = tested on: Pseudomonas aeruginosa; design: key to RED (substrate reduced or not): RED indicates whether the substrate is reduced (Y) or not (N); RED indicates whether the substrate is reduced (Y) or not (N); key to Co (growth, absorbance at 660 nm) / Decol (substrate decolourized, decrease in absorbance) / Fluo (fluorescence multiplied by 2 relative to substrate-free control): The symbol “+” means good growth/decolourization/significant increase in fluorescence; The symbol “+/−” means difficult growth; The symbol “−” means that there is no growth/decolourization/significant increase in fluorescence; conditions: P. aeruginosa, substrate 35 mg/l
Procedure: as §1, §2, §3, §4, §5

Staphylococcus aureus = tested on: Staphylococcus aureus; design: key to RED (substrate reduced or not): RED indicates whether the substrate is reduced (Y) or not (N); RED indicates whether the substrate is reduced (Y) or not (N); key to Co (growth, absorbance at 660 nm) / Decol (substrate decolourized, decrease in absorbance) / Fluo (fluorescence multiplied by 2 relative to substrate-free control): The symbol “+” means good growth/decolourization/significant increase in fluorescence; The symbol “+/−” means difficult growth; The symbol “−” means that there is no growth/decolourization/significant increase in fluorescence; conditions: S. aureus, substrate 35 mg/l
Procedure: as §1, §2, §3, §4, §5

Escherichia coli = tested on: Escherichia coli; design: key to RED (substrate reduced or not): RED indicates whether the substrate is reduced (Y) or not (N); RED indicates whether the substrate is reduced (Y) or not (N); key to Co (growth, absorbance at 660 nm) / Decol (substrate decolourized, decrease in absorbance) / Fluo (fluorescence multiplied by 2 relative to substrate-free control): The symbol “+” means good growth/decolourization/significant increase in fluorescence; The symbol “+/−” means difficult growth; The symbol “−” means that there is no growth/decolourization/significant increase in fluorescence; conditions: E. coli, substrate 35 mg/l
Procedure: as §1, §2, §3, §4, §5

Cronobacter muytjensii = tested on: Cronobacter muytjensii; design: key to RED (substrate reduced or not): RED indicates whether the substrate is reduced (Y) or not (N); RED indicates whether the substrate is reduced (Y) or not (N); key to Co (growth, absorbance at 660 nm) / Decol (substrate decolourized, decrease in absorbance) / Fluo (fluorescence multiplied by 2 relative to substrate-free control): The symbol “+” means good growth/decolourization/significant increase in fluorescence; The symbol “+/−” means difficult growth; The symbol “−” means that there is no growth/decolourization/significant increase in fluorescence; conditions: E. muytjensii, substrate 35 mg/l
Procedure: as §1, §2, §3, §4, §5

Candida albicans = tested on: Candida albicans; design: key to RED (substrate reduced or not): RED indicates whether the substrate is reduced (Y) or not (N); RED indicates whether the substrate is reduced (Y) or not (N); key to Co (growth, absorbance at 660 nm) / Decol (substrate decolourized, decrease in absorbance) / Fluo (fluorescence multiplied by 2 relative to substrate-free control): The symbol “+” means good growth/decolourization/significant increase in fluorescence; The symbol “+/−” means difficult growth; The symbol “−” means that there is no growth/decolourization/significant increase in fluorescence; conditions: substrate 35 mg/l
Procedure: as §1, §2, §3, §4, §5

[1] = tested on: Staphylococcus epidermidis; design: key to RED (substrate reduced or not): RED indicates whether the substrate is reduced (Y) or not (N); RED indicates whether the substrate is reduced (Y) or not (N); key to Co (growth, absorbance at 660 nm) / Decol (substrate decolourized, decrease in absorbance) / Fluo (fluorescence multiplied by 2 relative to substrate-free control): The symbol “+” means good growth/decolourization/significant increase in fluorescence; The symbol “+/−” means difficult growth; The symbol “−” means that there is no growth/decolourization/significant increase in fluorescence; conditions: S. epidermidis, substrate 35 mg/l
Procedure: as §1, §2, §3, §4, §5

Geotrichum candidum = tested on: Geotrichum candidum; design: key to RED (substrate reduced or not): RED indicates whether the substrate is reduced (Y) or not (N); RED indicates whether the substrate is reduced (Y) or not (N); key to Co (growth, absorbance at 660 nm) / Decol (substrate decolourized, decrease in absorbance) / Fluo (fluorescence multiplied by 2 relative to substrate-free control): The symbol “+” means good growth/decolourization/significant increase in fluorescence; The symbol “+/−” means difficult growth; The symbol “−” means that there is no growth/decolourization/significant increase in fluorescence; conditions: G. candidum, substrate 35 mg/l
Procedure: as §1, §2, §3, §4, §5

Row | SMILES | Co (growth, absorbance at 660 nm) (Acinetobacter baumanii) | Decol (substrate decolourized, decrease in absorbance) (Acinetobacter baumanii) | Fluo (fluorescence multiplied by 2 relative to substrate-free control) (Acinetobacter baumanii) | RED (substrate reduced or not) (Acinetobacter baumanii) | Co (growth, absorbance at 660 nm) (Enterococcus faecalis) | Decol (substrate decolourized, decrease in absorbance) (Enterococcus faecalis) | Fluo (fluorescence multiplied by 2 relative to substrate-free control) (Enterococcus faecalis) | RED (substrate reduced or not) (Enterococcus faecalis) | Co (growth, absorbance at 660 nm) (Kocuria rosea) | Decol (substrate decolourized, decrease in absorbance) (Kocuria rosea) | Fluo (fluorescence multiplied by 2 relative to substrate-free control) (Kocuria rosea) | Co (growth, absorbance at 660 nm) (Pseudomonas aeruginosa) | Decol (substrate decolourized, decrease in absorbance) (Pseudomonas aeruginosa) | Fluo (fluorescence multiplied by 2 relative to substrate-free control) (Pseudomonas aeruginosa) | RED (substrate reduced or not) (Pseudomonas aeruginosa) | Co (growth, absorbance at 660 nm) (Staphylococcus aureus) | Decol (substrate decolourized, decrease in absorbance) (Staphylococcus aureus) | Fluo (fluorescence multiplied by 2 relative to substrate-free control) (Staphylococcus aureus) | RED (substrate reduced or not) (Staphylococcus aureus) | Co (growth, absorbance at 660 nm) (Escherichia coli) | further results
1 | Oc1ccc2ccccc2c1/N=N/c1ccc(/C=C/c2ccnc3ccccc23)cc1 [BF38, 4″-Quinoline-4′-styryl-azo-2-Hydroxynaphthol] | + | − | − | N | + | + | − | Y | − | − | − | + | + | − | Y | + | + | − | Y | + | Decol (substrate decolourized, decrease in absorbance) (Escherichia coli): +; Fluo (fluorescence multiplied by 2 relative to substrate-free control) (Escherichia coli): −; RED (substrate reduced or not) (Escherichia coli): Y; Co (growth, absorbance at 660 nm) (Cronobacter muytjensii): +; Decol (substrate decolourized, decrease in absorbance) (Cronobacter muytjensii): +; Fluo (fluorescence multiplied by 2 relative to substrate-free control) (Cronobacter muytjensii): −; RED (substrate reduced or not) (Cronobacter muytjensii): Y; Co (growth, absorbance at 660 nm) (Candida albicans): +; Decol (substrate decolourized, decrease in absorbance) (Candida albicans): −; Fluo (fluorescence multiplied by 2 relative to substrate-free control) (Candida albicans): −; RED (substrate reduced or not) (Candida albicans): N; Co (growth, absorbance at 660 nm) [1]: +; Decol (substrate decolourized, decrease in absorbance) [1]: +; Fluo (fluorescence multiplied by 2 relative to substrate-free control) [1]: −; RED (substrate reduced or not) [1]: Y; Co (growth, absorbance at 660 nm) (Geotrichum candidum): +; Decol (substrate decolourized, decrease in absorbance) (Geotrichum candidum): −; Fluo (fluorescence multiplied by 2 relative to substrate-free control) (Geotrichum candidum): −; RED (substrate reduced or not) (Geotrichum candidum): N
2 | O=S(=O)([O-])c1ccc2c(N=Nc3cccc4ccccc34)c(O)c(S(=O)(=O)[O-])cc2c1.[Na+].[Na+] [Bordeaux B] | + | − | − | N | + | + | + | Y | − | − | − | + | − | − | N | + | − | − | N | + | Decol (substrate decolourized, decrease in absorbance) (Escherichia coli): −; Fluo (fluorescence multiplied by 2 relative to substrate-free control) (Escherichia coli): −; RED (substrate reduced or not) (Escherichia coli): N; Co (growth, absorbance at 660 nm) (Cronobacter muytjensii): +; Decol (substrate decolourized, decrease in absorbance) (Cronobacter muytjensii): −; Fluo (fluorescence multiplied by 2 relative to substrate-free control) (Cronobacter muytjensii): −; RED (substrate reduced or not) (Cronobacter muytjensii): N; Co (growth, absorbance at 660 nm) (Candida albicans): +; Decol (substrate decolourized, decrease in absorbance) (Candida albicans): −; Fluo (fluorescence multiplied by 2 relative to substrate-free control) (Candida albicans): −; RED (substrate reduced or not) (Candida albicans): N; Co (growth, absorbance at 660 nm) [1]: +; Decol (substrate decolourized, decrease in absorbance) [1]: −; Fluo (fluorescence multiplied by 2 relative to substrate-free control) [1]: −; RED (substrate reduced or not) [1]: N; Co (growth, absorbance at 660 nm) (Geotrichum candidum): +/−; Decol (substrate decolourized, decrease in absorbance) (Geotrichum candidum): −; Fluo (fluorescence multiplied by 2 relative to substrate-free control) (Geotrichum candidum): −; RED (substrate reduced or not) (Geotrichum candidum): N
